# Experimental data as given in US10543166B2, “Implantable drug delivery devices and methods of making the same” (TARIS Biomedical LLC, priority 2009, dated 2020).
# Experiments:
# [1] = In vitro drug release through both the wall and apertures of silicone tube devices; assay type: physicochemical; conditions: in vitro in water at about 37° C
# Experimental: Another study was performed to investigate the feasibility of delivering drug from a device through both a wall of a drug reservoir and from an aperture in the wall of the drug reservoir. Devices were formed form silicone tubes having a length of about 3 cm. The devices were loaded with solid drug tablets of lidocaine base, for a total payload of about 60 mg. […] The devices were tested in vitro in water at about 37° C.
# [2] = In vitro drug release by diffusion through the wall of silicone tube devices; assay type: physicochemical; conditions: silicone tube ID about 0.060 in, OD 0.076 in, length about 3 cm; solid tablets, payload about 60 mg; no aperture; in vitro in water at about 37° C
# Experimental: A study was performed to determine the feasibility of delivering drug through the wall of a drug reservoir via diffusion. Devices were formed form silicone tubes having an inner diameter of about 0.060 inches, an outer diameter of 0.076 inches, and a length of about 3 cm. The devices were loaded with solid drug tablets of lidocaine, for a total payload of about 60 mg. Some of the devices included an aperture formed through the tube wall, the aperture having a diameter of 150 μm. These devices were loaded with solid tablets of either lidocaine hydrochloride monohydrate or a combination of lidocaine hydrochloride monohydrate and lidocaine base. […] The devices were tested in vitro in water at about 37° C.
compound,measurement,setting,value
CCN(CC)CC(=O)Nc1c(C)cccc1C [lidocaine base],effect of apertures on release rate,"[1]; devices with 0, 1 (150 μm), 2, 30 or 60 (360 μm) apertures",release rate can be increased by adding apertures to the device
same,release from a silicone tube without any apertures,"[1]; silicone tubes about 3 cm, solid tablets, payload about 60 mg",can be released from a silicone tube without any apertures
same,delivery of drug via diffusion through a silicone wall without an aperture,[2],feasible to deliver drug via diffusion through a silicone wall without an aperture
